“Also recorded” adds a separate entry of the source. Where two headings read alike, the source gives them in different places.
Experiments:
[1] = format: in vivo, human
[2] = Safety assessments; format: in vivo, human; conditions: for safety and tolerability: apixaban 10 mg alone and in combination with clarithromycin IR 500 mg bid, healthy adults
[3] = cited from earlier work
[4] = cited from earlier work; remark: listed apart in the source
[5] = test system: CYP3A4; conditions: cited from earlier work
[6] = coadministered with multiple doses of clarithromycin vs apixaban alone
[7] = during treatment with the agent alone, of 19 subjects
[8] = whole study (apixaban alone, clarithromycin alone, both together)

Compound	increase in apixaban AUC(0–T) [1, 6] [%]	increase in apixaban AUC(INF) [1, 6] [%]	increase in apixaban Cmax [1, 6] [%]	time at which apixaban reached maximum concentration after dosing ([1]; concentration–time profiles day 1 and day 8 (Fig. 2)) [h]	safety and tolerability [2]	safety and tolerability ([2]; listed as apixaban)	subjects experiencing additional AEs ([2]; apixaban and clarithromycin together, of 18 subjects) [%]	subjects reporting at least one AE [2, 7] [%]	bleeding-related AEs, deaths, serious AEs [2, 8]	intensity of adverse events [2, 8]	half-life [3] [h]	oral bioavailability [3] [%]	renal clearance as share of total systemic clearance [3] [%]	change in apixaban exposure ([4]; coadministered with ketoconazole vs apixaban alone)	decrease in apixaban exposure ([4]; coadministered with rifampin vs apixaban alone) [%]	subjects with AEs considered related to study drug [2, 7] [%]	increase in AUC of midazolam ([5]; clarithromycin as inhibitor)	increase in AUC of midazolam ([5]; ketoconazole as inhibitor)
COc1ccc(-n2nc(C(N)=O)c3c2C(=O)N(c2ccc(N4CCCCC4=O)cc2)CC3)cc1 [Apixaban]	60	60	30	3	Apixaban 10 mg alone and in combination with twice-daily clarithromycin immediate release 500 mg was safe and generally well-tolerated by healthy adult volunteers.	safe and generally well-tolerated	22.2	5.3	no bleeding-related AEs, deaths, or serious AEs	mild	12	~50	~27	approximately doubled; also recorded: twofold	50	–	–	–
CC[C@H]1OC(=O)[C@H](C)[C@@H](O[C@H]2C[C@@](C)(OC)[C@@H](O)[C@H](C)O2)[C@H](C)[C@@H](O[C@@H]2O[C@H](C)C[C@H](N(C)C)[C@H]2O)[C@](C)(OC)C[C@@H](C)C(=O)[C@H](C)[C@@H](O)[C@]1(C)O [clarithromycin]	–	–	–	–	–	–	–	42.1	–	–	–	–	–	–	–	26.3	260–860%	–
CC(=O)N1CCN(c2ccc(OCC3COC(Cn4ccnc4)(c4ccc(Cl)cc4Cl)O3)cc2)CC1 (stereo not shown) [ketoconazole]	–	–	–	–	–	–	–	–	–	–	–	–	–	–	–	–	–	420–1500%

Reference: PMC6885504 (American Journal of Cardiovascular Drugs, 2019)
